From ChEMBL document CHEMBL1641562, “Modifications of the C6-substituent of penicillin sulfones with the goal of improving inhibitor recognition and efficacy” (Bioorg Med Chem Lett, 2011)
pIC50: −log10 of the molar value.

Key:
[1] = Inhibition of beta-lactamase TEM-1
[2] = Inhibition of beta-lactamase PDC-3

SMILES | pIC50 [1] | pIC50 [2]
CC1(C)[C@H](C(=O)O)N2C(=O)[C@@H](N)[C@H]2S1(=O)=O | 5.08 | < 4.30
CC1(C)[C@H](C(=O)O)N2C(=O)[C@@H](NC(=O)Cc3ccccc3)[C@H]2S1(=O)=O | < 4.30 | < 4.30
Cc1onc(-c2ccccc2)c1C(=O)N[C@@H]1C(=O)N2[C@@H](C(=O)O)C(C)(C)S(=O)(=O)[C@H]12 | < 4.30 | –
CC1(C)[C@H](C(=O)O)N2C(=O)[C@@H]([C@@H](O)CN)[C@H]2S1(=O)=O | 5.92 | 5.92
C=CC[C@@H]1C(=O)N2[C@@H](C(=O)OC(c3ccccc3)c3ccccc3)C(C)(C)S(=O)(=O)[C@H]12 | 4.46 | 5.92
CC1(C)[C@H](C(=O)O)N2C(=O)[C@@H](CC(O)O)[C@H]2S1(=O)=O | < 4.30 | < 4.30
CC1(C)[C@H](C(=O)O)N2C(=O)[C@@H](CCO)[C@H]2S1(=O)=O | < 4.30 | –
C=CCOC(=O)NC[C@@H]1C(=O)N2[C@@H](C(=O)O)C(C)(C)S(=O)(=O)[C@H]12 | < 4.30 | –
CC1(C)[C@H](C(=O)O)N2C(=O)[C@@H](CN)[C@H]2S1(=O)=O | 6.35 | < 4.30
CC1(C)[C@H](C(=O)O)N2C(=O)[C@@H](CNC(=O)Cc3ccccc3)[C@H]2S1(=O)=O | < 4.30 | –
CC1(C)[C@H](C(=O)O)N2C(=O)[C@@H](CNS(=O)(=O)C(F)(F)F)[C@H]2S1(=O)=O | 5.21 | –
CC1(C)[C@H](C(=O)O)N2C(=O)C[C@H]2S1(=O)=O [SULBACTAM] | – | 5.37

Second part, the compound after the results:

pIC50 [1] | pIC50 [2] | SMILES
< 4.30 | – | CC1(C)[C@H](C(=O)O)N2C(=O)[C@@H](NS(=O)(=O)C(F)(F)F)[C@H]2S1(=O)=O
< 4.30 | – | COc1cccc(OC)c1C(=O)N[C@@H]1C(=O)N2[C@@H](C(=O)O)C(C)(C)S(=O)(=O)[C@H]12
< 4.30 | – | CC1(C)[C@H](C(=O)O)N2C(=O)[C@@H](NCC(=O)O)[C@H]2S1(=O)=O
6.74 | – | CC1(C)[C@H](C(=O)O)N2C(=O)[C@@H]([C@@H](O)C(=O)N3CCCC3)[C@H]2S1(=O)=O
< 4.30 | – | CC1(C)[C@H](C(=O)O)N2C(=O)[C@@H](CCCO)[C@H]2S1(=O)=O
< 4.30 | – | CC(C)(C)C(=O)NC[C@@H]1C(=O)N2[C@@H](C(=O)O)C(C)(C)S(=O)(=O)[C@H]12
< 4.30 | < 4.30 | CC1(C)[C@H](C(=O)O)N2C(=O)[C@@H](CC(=O)NO)[C@H]2S1(=O)=O
< 4.30 | – | CC1(C)[C@H](C(=O)O)N2C(=O)[C@@H](CC(=O)O)[C@H]2S1(=O)=O
